Like-named read-outs stand apart in the source and are kept apart here.
Columns and labels:
[1] = Biological sample stability: benchtop (room temperature 4 h) and long-term (-80 °C, 34 days); type: physicochemical, minipig; settings: for Benchtop and long-term stability, RE (%): -80 °C 34 days then room temperature 4 h, n = 3; for Benchtop and long-term stability values (RE), range: all QC samples of 3′-SL and 6′-SL pooled
Method: (§1) Benchtop and long-term stability were evaluated simultaneously. The benchtop stability test was carried out at room temperature (24 °C) for 4 h using samples with long-term stability, i.e., those stored at −80 °C for 34 days. […] The post-preparative stability (RE) of samples after 21 h of storage at 10 °C in an autosampler tray ranged from –3.1% to 8.7% for liver QC samples and −10.2% to 4.7% for kidney QC samples of 3′-SL and 6′-SL. To investigate freeze/thaw stability, QC samples were frozen at −80 °C and thawed at room temperature over four cycles. The stability of all QC samples of 3′-SL and 6′-SL ranged from −6.7% to 7.6% for the liver and −9.3% to −3.2% for the kidney. All stability results satisfied the acceptance criterion of ±15% of the nominal concentration.
(§2) The biological samples were evaluated for benchtop, freeze/thaw, post-preparative, and long-term stability. The stability tests were performed by measuring LQC and HQC samples with three replicates. The background concentration of SL in the blank authentic tissues was set to the nominal LQC concentration in the stability test. As the background concentration of SL in the authentic matrix is similar to or higher than the LQC (60 ng/g), the deviation of the background concentration of SL markedly affects the accuracy of LQC. The background concentration of the blank samples was determined on initiation of the stability test. The HQC samples were prepared by adding a standard solution to the authentic matrix, and the results were calculated by subtracting the endogenous concentration in the blank matrix. Benchtop and long-term stability were evaluated simultaneously with the benchtop stability test carried out at room temperature (approximately 24 °C) for 4 h using samples with long-term stability (stored at −80 °C for 34 days). The post-preparative stability was assessed at 10 °C on an autosampler tray for 21 h. The freeze/thaw stability was evaluated by four cycles of freezing at −80 °C and thawing at room temperature.

[2] = Biological sample stability: post-preparative, autosampler tray; type: physicochemical, minipig; settings: for Post-preparative stability (RE), range: 21 h at 10 °C; for Post-preparative stability, RE (%): 10 °C for 21 h, n = 3
Method: as §1, §2

[3] = Tissue distribution study in minipigs after intravenous administration; type: in vivo, Yucatan minipigs; settings: minipig; for T/P Ratio Kidney/Plasma / T/P Ratio Liver/Plasma / Kp at 2 h / concentration at 2 h: 2 h after intravenous administration of 12.5 mg/kg; for T/P Ratio Kidney/Plasma / T/P Ratio Liver/Plasma / Kp at 2 h: 12.5 mg/kg; for Kp at 2 h / concentration at 2 h: Yucatan; for Kp at 2 h: iv
Method: A tissue distribution study was conducted involving intravenous injection of minipigs with 3′-SL and 6′-SL at a dose of 12.5 mg/kg. Kidney, liver, and blood samples were collected. The tissue to plasma (T/P) ratio was also calculated from the concentrations of 3′-SL and 6′-SL in the kidney, liver, and plasma, from the same minipigs at the same time points.
The tissue distribution of 3′-SL and 6′-SL in Yucatan minipigs was assessed following intravenous administration at a dose of 12.5 mg/kg. The animal experiments were performed in compliance with the Animal Welfare Act and Guide for the Care and Use of Laboratory Animals of Institute for Laboratory Animal Research (ILAR). The animals were kept in a single cage at constant room temperature (23 ± 3 °C) and 30–70% humidity under a regular 12-h light/12-h dark cycle. Animals were provided with approximately 25 g/kg/day food and water was freely available.
Two minipigs were sacrificed at 2 h after administration; liver and kidney tissues, and blood from the jugular vein, were then collected. Each tissue was immediately removed and washed with normal saline, blotted dry with a paper towel, cut into pieces with scissors, and individually homogenized with three volumes of normal saline (v/w) in an Ultra-Turrax apparatus (IKA Works, Wilmington, NC, USA). After blood collection into K2-EDTA tubes, blood samples were gently mixed and placed on crushed wet-ice/Kryorack (Streck Laboratories, Omaha, NE, USA). Following centrifugation at 20,740 × g for 3 min at 4 °C for separation of plasma, the plasma was transferred into labeled polypropylene tubes.
The collected tissues were analyzed using the method developed in this study, and the plasma was analyzed by the method described in our previous study (in press).

[4] = Biological sample stability: freeze/thaw, four cycles; type: physicochemical, minipig; settings: for Freeze/thaw stability, RE (%): four cycles -80 °C/room temperature, n = 3; for Freeze/thaw stability (RE), range: all QC samples of 3′-SL and 6′-SL pooled, four cycles
Method: as §1, §2

[5] = kidney, LQC (nominal = background concentration)
[6] = liver, LQC (nominal = background concentration)
[7] = kidney QC samples of 3′-SL and 6′-SL pooled
[8] = liver QC samples of 3′-SL and 6′-SL pooled
[9] = kidney / plasma, read-out: T/P Ratio Kidney/Plasma
[10] = liver / plasma, read-out: T/P Ratio Liver/Plasma
[11] = kidney, read-out: Tissue Concentration Kidney
[12] = liver, read-out: Tissue Concentration Liver
[13] = plasma, read-out: Tissue Concentration Plasma

For `CC(=O)NC1C(O)CC(OCC2OC(OC3C(CO)OC(O)C(O)C3O)C(O)C(O)C2O)(C(=O)O)OC1C(O)C(O)CO` (stereo not drawn) [6′-SL, 6′-sialyllactose], the “Benchtop and long-term stability, RE (%)” value ([1]; kidney, HQC 15,000 ng/g) was −6.7%, the “Benchtop and long-term stability, RE (%)” value [1, 5] was −10.1% and the “Benchtop and long-term stability values (RE), range” value ([1]; kidney) was −10.1% to −6.0. The “Benchtop and long-term stability, RE (%)” value ([1]; liver, HQC 15,000 ng/g) was −3.3%, the “Benchtop and long-term stability, RE (%)” value [1, 6] was 3.7% and the “Benchtop and long-term stability values (RE), range” value ([1]; liver) was −7.6% to 3.7. The “Post-preparative stability (RE), range” value [2, 7] was −10.2% to 4.7, the “Post-preparative stability, RE (%)” value ([2]; kidney, HQC 15,000 ng/g) was 4.7% and the “Post-preparative stability, RE (%)” value [2, 5] was 0.5%. For the same compound, the “Post-preparative stability (RE), range” value [2, 8] was “–3.1% to 8.7”, the “Post-preparative stability, RE (%)” value ([2]; liver, HQC 15,000 ng/g) was 8.7% and the “Post-preparative stability, RE (%)” value [2, 6] was −3.1%. For the same compound, the “T/P Ratio Kidney/Plasma” value [3] was 1.3, the “T/P Ratio Liver/Plasma” value [3] was 0.14 and the Kp at 2 h [3, 9] was 1 to 1.3. The Kp at 2 h [3, 10] was 0.12 to 0.14, the concentration at 2 h [3, 11] was 27000 ng/g and the concentration at 2 h [3, 12] was 3030 ng/g. For the same compound, the concentration at 2 h [3, 13] was 21000 ng/g, the “Exposure of tissues to 6′-SL higher than that of 3′-SL” value ([3]; liver and kidney, 2 h after i.v. 12.5 mg/kg) was “approximately 20%” and the “Freeze/thaw stability, RE (%)” value ([4]; kidney, HQC 15,000 ng/g) was −9.3%. The “Freeze/thaw stability, RE (%)” value [4, 5] was −6.8%, the “Freeze/thaw stability (RE), range” value ([4]; kidney) was −9.3% to −3.2 and the “Freeze/thaw stability, RE (%)” value ([4]; liver, HQC 15,000 ng/g) was −5.3%. For the same compound, the “Freeze/thaw stability, RE (%)” value [4, 6] was 7.6% and the “Freeze/thaw stability (RE), range” value ([4]; liver) was −6.7% to 7.6.
In the case of `CC(=O)N[C@H]1[C@H]([C@H](O)[C@H](O)CO)O[C@@](O[C@H]2[C@@H](O)[C@@H](CO)O[C@@H](O[C@H]3[C@H](O)[C@@H](O)[C@H](O)O[C@@H]3CO)[C@@H]2O)(C(=O)O)C[C@@H]1O` [3′-SL, 3′-sialyllactose], the “Benchtop and long-term stability, RE (%)” value ([1]; kidney, HQC 15,000 ng/g) is reported as −6.0%, the “Benchtop and long-term stability, RE (%)” value [1, 5] is reported as −9.2% and the “Benchtop and long-term stability values (RE), range” value ([1]; kidney) is reported as −10.1% to −6.0. The “Benchtop and long-term stability, RE (%)” value ([1]; liver, HQC 15,000 ng/g) was −5.3%, the “Benchtop and long-term stability, RE (%)” value [1, 6] was −7.6% and the “Benchtop and long-term stability values (RE), range” value ([1]; liver) was −7.6% to 3.7. The “Post-preparative stability (RE), range” value [2, 7] was −10.2% to 4.7, the “Post-preparative stability, RE (%)” value ([2]; kidney, HQC 15,000 ng/g) was −3.3% and the “Post-preparative stability, RE (%)” value [2, 5] was −10.2%. The “Post-preparative stability (RE), range” value [2, 8] was “–3.1% to 8.7”, the “Post-preparative stability, RE (%)” value ([2]; liver, HQC 15,000 ng/g) was −2.7% and the “Post-preparative stability, RE (%)” value [2, 6] was −1.3%. The “T/P Ratio Kidney/Plasma” value [3] was 1.0, the “T/P Ratio Liver/Plasma” value [3] was 0.12 and the Kp at 2 h [3, 9] was 1 to 1.3. The Kp at 2 h [3, 10] was 0.12 to 0.14, the concentration at 2 h [3, 11] was 22300 ng/g and the concentration at 2 h [3, 12] was 2550 ng/g. For the same compound, the concentration at 2 h [3, 13] was 21500 ng/g, the “Freeze/thaw stability, RE (%)” value ([4]; kidney, HQC 15,000 ng/g) was −8.0% and the “Freeze/thaw stability, RE (%)” value [4, 5] was −3.2%. For the same compound, the “Freeze/thaw stability (RE), range” value ([4]; kidney) was −9.3% to −3.2, the “Freeze/thaw stability, RE (%)” value ([4]; liver, HQC 15,000 ng/g) was −6.7% and the “Freeze/thaw stability, RE (%)” value [4, 6] was −5.8%. The “Freeze/thaw stability (RE), range” value ([4]; liver) was −6.7% to 7.6.

— publication PMC7731434, “Development and Validation of a Bioanalytical Method for 3′- and 6′-Sialyllactose in Minipig Liver and Kidney Using Liquid Chromatography-Tandem Mass Spectrometry and Its Application to Analysis of Tissue Distribution” (Molecules, 2020)
